{
  "source": "patent US20130252334A1",
  "about": "“METHOD OF USING TET-INDUCIBLE TRANSGENES” (UNIVERSITY OF ROCHESTER, priority 2010, published 2013)",
  "origin": "cited, not measured here",
  "key": {"tet repressor": {"biological_target": "tet repressor (Escherichia coli, UniProt P04483)", "sequence (P04483 whole entry)": "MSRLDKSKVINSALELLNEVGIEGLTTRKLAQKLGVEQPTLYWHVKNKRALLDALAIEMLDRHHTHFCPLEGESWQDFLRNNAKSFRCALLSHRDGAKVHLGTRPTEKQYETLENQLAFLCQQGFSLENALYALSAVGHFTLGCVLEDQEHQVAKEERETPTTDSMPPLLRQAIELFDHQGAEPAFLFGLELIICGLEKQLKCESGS", "conditions": "relative to tetracycline; Zhu et al. 2007; cited from earlier work"}, "rtTA": {"system": "rtTA", "conditions": "compared to Dox; Zhu et al. 2007; cited from earlier work"}, "[1]": {"conditions": "versus other related compounds; cited from earlier work"}},
  "data": [
    {"smiles": "C[C@H]1c2ccc(C(C)(C)C)c(O)c2C(O)=C2C(=O)[C@]3(O)C(O)=C(C(N)=O)C(=O)[C@@H](N(C)C)[C@@H]3[C@@H](O)[C@@H]21", "note": "[9-TB, 9-t-butyl doxycycline]", "values": [
      {"measurement": "binding affinity on the tet repressor, fold higher", "setting": "tet repressor", "value": 10, "unit": "fold"},
      {"measurement": "potency in activating transcription from the rtTA", "setting": "rtTA", "value": 10, "unit": "times"},
      {"measurement": "hydrophobicity/lipophilicity", "setting": "[1]", "value": "much more hydrophobic/lipophylic than other related compounds"}
    ]}
  ]
}
